Laboratory results taken from patent US10149830B2, “Pharmaceutical agents and methods relating thereto” (Cushing Academy, priority 2016, dated 2018).
pIC50: −log10 of the molar value.

Tests used:
[1] = system: HL-60 (promyelocytic leukemia); experiment: MTT reduction cytotoxicity assay, HL-60; type: cell-based; conditions: Homo sapiens, HL-60, MTT, 72 h incubation; for IC50: two experiments
Description: (§1) The human tumor cell lines used were HL-60 (promyelocytic leukemia), MCF-7 (breast adenocarcinoma) and NCI-H292 (lung carcinoma). The cells were obtained from Rio de Janeiro Cell Bank (RJ, Brazil). Cancer cells were maintained in RPMI 1640 medium or DMEN supplemented with 10% fetal bovine serum, 2 mM glutamine, 100 U/mL penicillin, 100 μg/mL streptomycin at 37° C. with 5% CO2. Cytotoxicity of (6R)-6-[(2Z)-pent-2-enyl]-5,6-dihydro-2H-pyran-2-one [(R)-(−)-Tuberolactone] against the three tumor cell lines was assessed using the 3-(4,5-dimethyl-2-thiazolyl)-2,5-diphenyl-2H tetrazolium bromide (MTT) (Sigma Aldrich Co., St. Louis, Mo., USA) reduction assay. Tumor cells were plated in 96-well plates (10^5 cells/mL for adherent cells or 3×10^5 cells/mL for Leukemia). (6R)-6-[(2Z)-pent-2-enyl]-5,6-dihydro-2H-pyran-2-one [(R)-(−)-Tuberolactone] in DMSO (0.3-25 μg/mL) were added to each well and incubated for 72 h. Control groups received the same amount of DMSO. After 69 h of treatment, 25 μL of MTT (5 mg/mL) was added. Three hours later, the MTT formazan product was dissolved in 100 μL of DMSO. Absorbance was measured at 595 nm in plate spectrophotometer (Varioskan Flash, Thermo Scientific). […] IC50 values and their 95% confidence intervals for two different experiments were obtained by non linear regression using Graphpad Prism version 5.0 for Windows (GraphPad Software, San Diego, Calif., USA).

[2] = system: NCI-H292 (lung carcinoma); experiment: MTT reduction cytotoxicity assay, NCI-H292; type: cell-based; conditions: Homo sapiens, 72 h incubation; for IC50: two experiments; for pIC50: value in parentheses
Description: as §1

[3] = system: MCF-7 (breast adenocarcinoma); experiment: MTT reduction cytotoxicity assay, MCF-7; type: cell-based; conditions: Homo sapiens, MCF7, MCF-7, MTT, 72 h incubation
Description: as §1

[4] = system: S. lutea; experiment: Paper disk diffusion antibacterial test, S. lutea; type: cell-based, Sarcina lutea; conditions: gram-(+) strain, 24 h at 28° C.
Description: (§2) 235 mg alkaloids were extracted from 750 g leaves from the plant, Gaultheria procumbens (also called American wintergreen, teaberry, or boxberry). Fractionation of the crude extract was guided by antimicrobial activity against several gram-(+) and gram-(−) strains: Enterobacter aerogenes (Gram-negative rods), Bacillus cereus (Gram-positive rods), and Sarcina lutea (Gram-positive […]), using the paper disk diffusion method (Barry, A. L.; Thornsbery, C. Identification for Clinical Microbiology, 4th ed.; Washington, D.C., 1985; p 978) supplied within the Science Kit & Boreal Laboratories Antibiotic Effects Kit. The SK Antibiotics Effect Kit uses “Easygel” instead of agar dishes. Each paper disk (6 mm) containing approximately 100 μg of the extract was placed directly onto an Easygel plate, which had been freshly inoculated with either a gram-(+) or (−) strain. In addition, a standard antibiotic disk (30 μg of either penicillin, tetracycline, or chloramphenicol supplied within Science Kit & Boreal Laboratories Antibiotic Effects Kit) as well as a blank disk (with only solvent) were placed on the freshly inoculated Easygel plate. […] 45 mg (6R)-6-[(2Z)-pent-2-enyl]-5,6-dihydro-2H-pyran-2-one [(R)-(−)-Tuberolactone] were isolated (MW. 166.0989 g/mol). […]

[5] = system: B. cereus; experiment: Paper disk diffusion antibacterial test, B. cereus; type: cell-based, Bacillus cereus; conditions: gram-(+) strain, 24 h at 28° C.
Description: as §2

[6] = system: E. aerogenes; experiment: Paper disk diffusion antibacterial test, E. aerogenes; type: cell-based, Enterobacter aerogenes; conditions: gram-(−) strain, 24 h at 28° C.
Description: as §2

SMILES | IC50 [1] [µg/mL] | IC50 [2] [µg/mL] | pIC50 [2] | pIC50 ([1]; value in parentheses) | IC50 ([3]; two experiments) [µg/mL] | pIC50 ([3]; value in parentheses) | antibacterial activity against S. lutea [4] | antibacterial activity against B. cereus [5] | antibacterial activity against E. aerogenes [6]
COc1cccc2c1C(=O)c1c(O)c3c(c(O)c1C2=O)C[C@@](O)(C(=O)CO)C[C@@H]3O[C@H]1C[C@H](N)[C@H](O)[C@H](C)O1 [Doxorubicin, reference compound] | 0.02 | 0.2 | 6.44 | – | – | – | – | – | –
CC/C=C\C[C@@H]1CC=CC(=O)O1 [Tuberolactone, (6R)-6-[(2Z)-pent-2-enyl]-5,6-dihydro-2H-pyran-2-one] | 4.4 | 5.9 | 4.45 | 4.59 | 6.4 | 4.41 | confirmed | confirmed | confirmed
